In paper PMC4310350 (Drug Design, Development and Therapy, 2015):
Entries after “also recorded” stand apart in the source; their conditions may differ.

Target: T1, BCRP (Homo sapiens, UniProt Q9UNQ0)
T1 sequence (Q9UNQ0 1-655): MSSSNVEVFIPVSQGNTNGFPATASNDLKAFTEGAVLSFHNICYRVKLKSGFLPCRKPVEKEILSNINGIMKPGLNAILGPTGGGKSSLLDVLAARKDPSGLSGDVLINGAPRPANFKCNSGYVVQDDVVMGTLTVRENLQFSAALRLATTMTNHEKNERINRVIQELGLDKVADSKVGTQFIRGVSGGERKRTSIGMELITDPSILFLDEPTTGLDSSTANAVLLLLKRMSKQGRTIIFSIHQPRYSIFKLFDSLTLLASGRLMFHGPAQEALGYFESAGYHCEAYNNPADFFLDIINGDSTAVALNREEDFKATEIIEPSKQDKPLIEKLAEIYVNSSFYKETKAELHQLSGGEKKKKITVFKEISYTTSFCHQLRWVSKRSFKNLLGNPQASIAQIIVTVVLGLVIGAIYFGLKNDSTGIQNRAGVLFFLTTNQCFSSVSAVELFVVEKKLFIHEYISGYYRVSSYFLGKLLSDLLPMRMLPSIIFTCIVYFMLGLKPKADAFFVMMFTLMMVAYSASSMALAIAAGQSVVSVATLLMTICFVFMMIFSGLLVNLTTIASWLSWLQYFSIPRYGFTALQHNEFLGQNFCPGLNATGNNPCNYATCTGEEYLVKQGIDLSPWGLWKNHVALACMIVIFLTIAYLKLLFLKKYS
Test: A-to-B and B-to-A transport in LLC-PK1 cells overexpressing BCRP
Assay type: in vitro ADME
Conditions: BCRP, efflux

O=C(O[C@H]1[C@@H]2C=CO[C@@H](O[C@@H]3O[C@H](CO)[C@@H](O)[C@H](O)[C@H]3O)[C@@H]2[C@@]2(CO)O[C@@H]12)c1ccc(O)cc1 [catalposide]
Substrate: not involved; also recorded: not a substrate
